Reference: paper PMC5590943, “Pharmacological characterisation of S 47445, a novel positive allosteric modulator of AMPA receptors” (PLoS ONE, 2017)

How the values were obtained:
[1] = target: T1, GluA1flop/GluA2flip AMPA receptors (Homo sapiens, UniProt P42261+P42262, Q607R); test: 10 μM glutamate-evoked currents in Xenopus laevis oocytes expressing GluA1flop/GluA2flip (repetitive pulses, GYKI52466); format: cell-based; conditions: GYKI52466 10 to 1000 μM; 10 μM glutamate
T1 construct: host or cells: Xenopus laevis oocytes
Protocol: (§1) Compounds were tested by bath application.
To test the inhibition, the selective AMPA receptor antagonist GYKI52446 was used from 10 to 1000 μM on the potentiation caused by S 47445 (1 μM).
EC50 were determined either using Matlab (Mathworks inc., Natick, USA) or SAS v9.2 (SAS Institute inc., Cary, USA) softwares. To have a comparative value between the tested drugs when EC50 could not be determined (absence of plateau at high concentrations), the EC2X was determined. EC2X corresponds to the concentrations of the drug responsible for a two-fold increase in the amplitude of the current.

[2] = tested on: rat primary cortical cell cultures; test: LDH release toxicity assay on rat primary cortical cell cultures; conditions: MK801 1 μM; data not shown
GluA3flop receptors = tested on: GluA3flop receptors; set-up: method as in PMID 9221774, PMID 11408529; conditions: Xenopus oocytes; cited from earlier work
Rat AMPA receptors = test: AMPA-evoked currents, Xenopus laevis oocytes injected with rat cortex poly(A+) mRNA (two-electrode voltage clamp); format: cell-based; conditions: for EC2X: concentration giving a two-fold increase in current amplitude; for EC2X / EC50: geometric mean; for Emax (fold increase): maximal potentiation, mean ± SEM; for EC50: potentiation of 10 μM AMPA-evoked current
Protocol: as §1

Human AMPA receptors = test: AMPA-evoked currents, Xenopus laevis oocytes injected with human hippocampal poly(A+) mRNA; format: cell-based; conditions: for EC2X: concentration giving a two-fold increase in current amplitude; for EC2X / EC50: geometric mean; for Emax (fold increase): maximal potentiation, mean ± SEM; for EC50: potentiation of 10 μM AMPA-evoked current
Protocol: as §1

[3] = tested on: isolated prefrontal cortex pyramidal neurons; set-up: method as in PMID 9221774, PMID 11408529; conditions: patch-clamp; cited from earlier work

T1 sequence (P42261 19-906): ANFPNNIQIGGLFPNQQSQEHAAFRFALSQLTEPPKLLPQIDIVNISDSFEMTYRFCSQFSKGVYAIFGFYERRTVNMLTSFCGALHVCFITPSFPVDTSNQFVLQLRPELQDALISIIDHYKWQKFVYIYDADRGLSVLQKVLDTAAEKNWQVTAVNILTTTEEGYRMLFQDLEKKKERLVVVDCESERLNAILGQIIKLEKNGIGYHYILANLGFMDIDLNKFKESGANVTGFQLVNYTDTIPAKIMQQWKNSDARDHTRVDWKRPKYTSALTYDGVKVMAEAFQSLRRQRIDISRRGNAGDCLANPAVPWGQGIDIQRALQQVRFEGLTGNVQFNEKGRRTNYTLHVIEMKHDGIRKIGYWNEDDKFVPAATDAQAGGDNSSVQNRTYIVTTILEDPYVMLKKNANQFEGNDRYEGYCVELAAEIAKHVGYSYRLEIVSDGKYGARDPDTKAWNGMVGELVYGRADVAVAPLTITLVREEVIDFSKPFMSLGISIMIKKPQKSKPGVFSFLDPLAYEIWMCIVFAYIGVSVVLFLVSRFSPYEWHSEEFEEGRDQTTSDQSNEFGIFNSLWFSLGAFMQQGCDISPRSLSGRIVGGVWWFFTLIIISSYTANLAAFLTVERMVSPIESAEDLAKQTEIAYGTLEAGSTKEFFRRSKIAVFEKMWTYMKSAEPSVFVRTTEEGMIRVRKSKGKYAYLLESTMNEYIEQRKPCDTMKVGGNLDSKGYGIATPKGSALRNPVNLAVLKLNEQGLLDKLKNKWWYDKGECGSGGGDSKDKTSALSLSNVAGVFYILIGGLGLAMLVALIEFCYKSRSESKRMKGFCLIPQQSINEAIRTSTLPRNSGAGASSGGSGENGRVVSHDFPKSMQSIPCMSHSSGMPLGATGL
T1 sequence (P42262 22-883 isoform P42262-2 Q607R limits assumed): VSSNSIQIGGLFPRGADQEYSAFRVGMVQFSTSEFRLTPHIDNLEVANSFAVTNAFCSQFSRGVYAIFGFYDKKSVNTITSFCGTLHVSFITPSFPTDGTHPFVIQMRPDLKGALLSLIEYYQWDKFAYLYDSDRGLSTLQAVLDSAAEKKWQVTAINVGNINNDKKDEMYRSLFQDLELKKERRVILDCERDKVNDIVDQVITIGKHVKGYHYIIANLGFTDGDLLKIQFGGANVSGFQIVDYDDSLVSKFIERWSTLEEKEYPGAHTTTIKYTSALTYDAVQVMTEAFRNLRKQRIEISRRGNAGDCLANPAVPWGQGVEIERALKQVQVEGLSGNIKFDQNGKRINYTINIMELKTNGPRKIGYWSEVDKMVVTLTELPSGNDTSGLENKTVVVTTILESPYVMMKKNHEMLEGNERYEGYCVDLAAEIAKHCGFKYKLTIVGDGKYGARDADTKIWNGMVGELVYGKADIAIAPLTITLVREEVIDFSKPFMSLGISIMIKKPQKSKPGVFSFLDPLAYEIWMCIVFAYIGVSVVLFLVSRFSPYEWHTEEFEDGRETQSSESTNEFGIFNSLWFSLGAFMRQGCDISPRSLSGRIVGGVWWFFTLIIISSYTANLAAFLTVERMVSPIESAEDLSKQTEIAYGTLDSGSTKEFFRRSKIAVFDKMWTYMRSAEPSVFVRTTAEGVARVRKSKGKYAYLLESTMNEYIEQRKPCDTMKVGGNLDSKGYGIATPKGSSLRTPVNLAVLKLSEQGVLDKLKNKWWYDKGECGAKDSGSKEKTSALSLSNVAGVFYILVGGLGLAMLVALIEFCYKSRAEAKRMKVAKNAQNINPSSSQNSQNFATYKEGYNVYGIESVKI

SMILES	EC2X (Rat AMPA receptors) [µM]	Emax (fold increase) (Rat AMPA receptors)	EC50 (Rat AMPA receptors) [µM]	EC2X (Human AMPA receptors) [µM]	Emax (fold increase) (Human AMPA receptors)	EC50 (Human AMPA receptors) [µM]	also measured
CC1=NN=C(c2ccc(N)cc2)c2cc3c(cc2C1)OCO3.Cl.Cl [GYKI52466, 4-(8-Methyl-9H-1,3-dioxolo[4,5-h][2,3]benzodiazepin-5-yl)-benzenamine dihydrochloride, reference compound]	–	–	–	–	–	–	Effect on the potentiation caused by S 47445 (1 μM) [1]: concentration-dependently reversed
C[C@]12N[C@H](Cc3ccccc31)c1ccccc12 [MK801, reference compound]	–	–	–	–	–	–	Effect on 100 μM glutamate-mediated toxicity [2]: completely reversed
NC(=O)COc1c(F)cc(SCCNS(=O)(=O)c2ccccc2)cc1F [PEPA, 4-[2-(Phenylsulfonylamino)ethylthio]-2,6-Difluoro-Phenoxyacetamide]	–	–	–	–	–	–	Increase of agonist potency (GluA3flop receptors): approximately 7 fold
O=C1c2cc3c(cc2OC2CCCN12)OCCO3 (centres unmarked) [CX614]	1.03	30.32 ± 5.67	17.3	0.88	23.43 ± 2.32	11.4	–
CC(CNS(=O)(=O)C(C)C)c1ccc(-c2ccsc2)cc1 (centres unmarked) [LY392098]	–	–	–	–	–	–	Increase of agonist potency [3]: approximately 7 fold
CC(C)S(=O)(=O)NC[C@H](C)c1ccc(-c2ccc(CCNS(C)(=O)=O)cc2)cc1 [LY451395]	0.04	14.03± 0.70	0.37	–	–	–	–
O=C(c1ccc2nccnc2c1)N1CCCCC1 [CX516]	–	1.72 ± 0.1	–	–	3.13	–	–
O=S1(=O)N[C@H]2CCCN2c2ccccc21 [S 18986]	23.77	15.37 ± 2.21	125	16.88	14.51 ± 1.53	–	–
CC(CNS(=O)(=O)C(C)C)c1ccc(-c2ccc(C#N)cc2)cc1 (centres unmarked) [LY404187]	0.32	16.40 ± 2.22	3.01	0.37	29.67 ± 2.67	4.64	–
NS(=O)(=O)c1cc2c(cc1Cl)NC(C1CC3C=CC1C3)NS2(=O)=O (centres unmarked) [Cyclothiazide]	1.68	8.86 ± 0.79	8.83	1.54	9.40 ± 2.61	9.33	–
